The results in this text go back to patent US20090311214A1, “COMPOSITIONS AND METHODS FOR THE INNATE IMMUNE RESPONSE PATHWAY” (UNIVERSITY OF MARYLAND, BALTIMORE, priority 2008, published 2009).

Format in all cases: cell-based, human
Experiment [1] has as its system PBMC. Nature of the experiment: PBMC pretreated with IL-1ra before stimulation with PTG or β-glucan. As to the method:
Considering the essential role for IL-1β in the IL-23/TH17 innate response in purified monocytes, we predicted that IL-1β regulates the cytokine profile triggered by PTG and β-glucan in whole PBMC as well. To this end, PBMC were pretreated with IL-1ra for 1 h prior to stimulation with PTG or β-glucan, or incubated with 5 ng/ml IL-1β alone for 20 h.
(§1) PBMC cultures. PBMC from CD patients and HLA-DQ2^+ healthy controls was tested as follows. 10^6 PBMC/ml were incubated in RPMI-1640 supplemented with 10% heat inactivated hAB, 1% L-glutamine, 1% Pen-Strep and 20 mM Hepes Buffer (cRPMI) with and without PTG, β-glucan, 5 ng/ml rhIL-1β, or 10 μg/ml pooled synthetic 20 mers of α-gliadin in 96 well U-bottom plates (Denville Scientific Inc.) at 37° C. in 5% CO2 for 6, 24, 48, or 72 h. Alternatively, 10^6 PBMC/ml were incubated with 0.5 μg/ml rhIL-1ra at 37° C. in 5% CO2 for 1 h then cultured with and without 100 μg/ml PTG or 500 μg/ml β-glucan for an additional 20 h. Cell-free culture supernatants were harvested for cytokine and chemokine analysis.
(§2) Cytokine & chemokine analysis. Cell-free culture supernatants were analyzed for IL-1β, IL-1ra, IL-6, IL-12p70, IFNγ, TNFα (Bio-Plex Cytokine Assay kit, Bio-Rad) or IL-1β, IL-23 (ELISA kit, eBiosciences), IL-1ra and CCL20 (Quantikine ELISA kit, R & D Systems) following the manufacturers' protocols. Appropriate standard curves were included in each assay.

Experiment [2] has as its system monocytes. In words: Purified monocytes pretreated with IL-1ra before PTG or β-glucan. On the procedure: To better understand the contribution of IL-1 signaling in the IL-23/TH17 innate response to PTG in monocyte and immDC populations, we pretreated monocytes, immDC and IFNγ-treated immDC with the naturally occurring anti-inflammatory IL-1 receptor antagonist (IL-1ra) for 1 h prior to stimulation with PTG or β-glucan as a positive control, or incubated with increasing doses of exogenous IL-1β for 20 h. […] Contradictory to the monocyte response, addition of IL-1ra or IL-1β to IFNγ-treated immDC had no effect on the IL-23/TH17 profile induced by PTG exposure (FIG. 3D), providing further indication that monocytes exposed to gluten and not their progeny DC have the potential to activate autoreactive memory TH17 cells. Indeed, other groups have reported in human studies that activated monocytes, which produce IL-1β and IL-23, are the best inducers of TH17 cells (Evans et al., Proc. Natl. Acad. Sci., U.S.A., 104(43):17034-17039 (2007)).
Elutriated monocyte cultures. 5×10^5 monocytes/ml were cultured in cRPMI with and without 100 μg/ml PTG, 100 μg/ml β-glucan, or 0.5-50 ng/ml rhIL-1β in 96 well U-bottom plates at 37° C. in 5% CO2 for 20 h. Alternatively, 5×10^5 monocytes/ml were incubated with 0.5 μg/ml rhIL-1ra at 37° C. in 5% CO2 for 1 h then cultured with and without 100 μg/ml PTG or β-glucan for an additional 20 h. Cell-free culture supernatants were harvested for cytokine and chemokine analysis.
as §2

Another experiment has as its system IFNγ-treated immDC. In words: IFNγ-treated immDC exposed to PTG with or without IL-1ra or IL-1β. The settings on record: addition to IFNγ-treated immDC. On the procedure: IL-23 is only secreted by activated APC such as monocytes, macrophages and DC, which reduces the number of possible cell sources considerably. To determine which of these cell populations was the source of IL-23 in response to PTG, purified lymphocytes, monocytes, or monocyte-derived DC cultured with GM-CSF and IL-4, were incubated in the presence or absence of PTG for 24 h, at which time supernatants were collected for IL-23, IL-1β, IL-6, IFNγ and TNFα analysis. […] Since neither PTG nor β-glucan activated cytokine production in DC differed from monocytes, we examined the response after pretreatment with IFNγ, given that this treatment has been necessary for the IL-23 response to a variety of agents including β-glucan. immDC were cultured in the presence or absence of IFNγ for 18 h prior to addition of PTG, after which supernatants were subjected to cytokine analysis as described above. […] Moreover, these findings provide insight to the mechanisms in which IFNγ counteracts IL-1 dependent TH17 responses. […]

Experiment [3] has as its system PBMC. Nature of the experiment: PBMC cultures with PTG, β-glucan, IL-1β or α-gliadin peptides; cytokine/chemokine analysis of supernatants. On the procedure:
We cultured PBMC from HLA-DQ2 positive and HLA-DQ2 negative healthy persons in the presence or absence of 100 ug/ml of PTG or β-D-glucan from barley as a positive control for 20 h. Cell-free culture supernatants were harvested and analyzed for proinflammatory cytokines IL-1β, IL-6, IFNγ, TNFα (Luminex) IL-23 and the TH17 chemokine CCL20/MIP-3α (ELISA).
as §1, §2

The subject of experiment [4] is monocytes. In words: Purified lymphocytes, monocytes or monocyte-derived DC with PTG, β-glucan or IL-1β. On the procedure: IL-23 is only secreted by activated APC such as monocytes, macrophages and DC, which reduces the number of possible cell sources considerably. To determine which of these cell populations was the source of IL-23 in response to PTG, purified lymphocytes, monocytes, or monocyte-derived DC cultured with GM-CSF and IL-4, were incubated in the presence or absence of PTG for 24 h, at which time supernatants were collected for IL-23, IL-1β, IL-6, IFNγ and TNFα analysis. […] Since neither PTG nor β-glucan activated cytokine production in DC differed from monocytes, we examined the response after pretreatment with IFNγ, given that this treatment has been necessary for the IL-23 response to a variety of agents including β-glucan. immDC were cultured in the presence or absence of IFNγ for 18 h prior to addition of PTG, after which supernatants were subjected to cytokine analysis as described above. […] Moreover, these findings provide insight to the mechanisms in which IFNγ counteracts IL-1 dependent TH17 responses.
While IL-1β is produced by many cell types, IL-23 production is thought to be restricted to activated APC. […] To investigate this hypothesis, we exposed purified lymphocytes, monocytes, or monocyte-derived DC (cultured with GM-CSF and IL-4 for 72 h) to PTG overnight and analyzed the cell-free culture supernatants for IL-23 and related “Th17” polarizing mediators.
Elutriated monocyte cultures. 5×10^5 monocytes/ml were cultured in cRPMI with and without 100 μg/ml PTG, 100 μg/ml β-glucan, or 0.5-50 ng/ml rhIL-1β in 96 well U-bottom plates at 37° C. in 5% CO2 for 20 h. Alternatively, 5×10^5 monocytes/ml were incubated with 0.5 μg/ml rhIL-1ra at 37° C. in 5% CO2 for 1 h then cultured with and without 100 μg/ml PTG or β-glucan for an additional 20 h. […]
Cytokine & chemokine analysis. Cell-free culture supernatants were analyzed for IL-1β, IL-1ra, IL-6, IL-12p70, IFNγ, TNFα (Bio-Plex Cytokine Assay kit, Bio-Rad) or IL-1β, IL-23 (ELISA kit, eBiosciences), IL-1ra and CCL20 (Quantikine ELISA kit, R & D Systems) following the manufacturers' protocols. […]

[5] abbreviates: monocytes, IL-1ra 1 h prior to stimulation.
[6] abbreviates: PBMC, 5 ng/ml IL-1β alone, 20 h.

Entries after “also recorded” stand apart in the source; their conditions may differ.

For “IL-1ra: naturally occurring anti-inflammatory IL-1 receptor antagonist; recombinant human, purchased from R & D Systems”, in the experiment on PBMC [1] (0.5 μg/ml IL-1ra 1 h prior, stimulation 20 h, mean of 10 experiments), the “IL-23 and IL-1β responses to PTG and β-glucan” value is “significantly inhibits”. Also, in the experiment with PBMC [1] (PBMC from CD patients), the “induction of IL-23 in response to PTG and β-glucan” value is on record as “completely inhibited”; the “levels of IL-1β in PBMC treated with PTG or β-glucan” value is “markedly reduced”. Moreover, the “IL-23, TNF-α, IL-6 and CCL20 responses to PTG and β-glucan” value in the experiment with PBMC [1] (PBMC from healthy individuals, IL-1ra 1 h prior to stimulation, 20 h) is listed as “inhibits; also recorded: almost completely inhibited”. Besides, in the experiment on PBMC [1] (PBMC, IL-1ra 1 h prior to PTG or β-glucan, 20 h), the “reduction of the IL-1β response” value is reported as roughly 60%. For the same substance, in the experiment on monocytes [2] (setting [5]), the “IL-23, TNFα, IL-6 and CCL20 responses to PTG” value was “drastically inhibited”; the “cytokine response to β-glucan” value is reported as “inhibited”. For the same substance, the “IL-23 responses to PTG and β-glucan” value with monocytes [2] (purified monocytes, 0.5 μg/ml IL-1ra, 20 h) was “significantly inhibited; also recorded: blocks”. Moreover, in the experiment with monocytes [2] (summary statement), the “IL-1β and IL-23 responses generated by monocytes exposed to gliadin” value is reported as “substantially inhibits”. The “effect on the IL-23/TH17 profile induced by PTG exposure” value in the experiment on IFNγ-treated immDC was “had no effect”.

On to “IL-1β: recombinant human IL-1β purchased from R & D Systems”, for which, in the experiment with PBMC [3] (setting [6]), the “CCL20 and IL-6 produced compared with PTG” value is given as “equivalent concentrations”; the “IL-23 and TNFα produced compared with PTG” value is “reduced levels”. In the experiment on PBMC [3] (PBMC, 5 ng/ml IL-1β, 20 h, mean of 10 experiments), the “capacity to stimulate IL-23 production, lower than that of PTG or β-glucan” value was roughly 10 fold. Further, the “IL-23 production by IL-1β alone relative to PTG and β-glucan” value with PBMC [3] (PBMC, physiologic concentrations of exogenous IL-1β) is listed as “much lower levels”. The “IL-23 response of monocytes to exogenous IL-1β” value in the experiment on monocytes [4] (0.5, 5 or 50 ng/ml rhIL-1β, 20 h) was “dose dependent manner”. Further, the “capacity to activate IL-23 secretion, reduced compared to PTG or β-glucan” value in the experiment on monocytes [4] (purified monocytes, 20 h, means of 5 experiments) is listed as roughly 10 fold. For the same substance, the “effect on the IL-23/TH17 profile induced by PTG exposure” value in the experiment on IFNγ-treated immDC is “had no effect”.

On to “β-D-glucan [β-glucan, reference compound]”, for which the “dose dependence of IL-1β and IL-23 production” value with PBMC [3] (PBMC from CD patients, 25-500 μg/ml, 24 h) is “dose-dependent production”. Moreover, in the experiment on PBMC [3] (PBMC, 24 h), the “IL-23 response in HLA-DQ2+ compared to HLA-DQ2 negative healthy individuals” value is on record as “substantially more IL-23; also recorded: more pronounced effect”. In addition, the “concentration at which detectable levels of IL-23 were achieved” value in the experiment on PBMC [3] (dose response curves, PBMC from CD patients, 24 h) was 500 µg/mL. In addition, the “cell source of IL-23, IL-1β, CCL20, TNFα and IL-6 secretion” value with monocytes [4] (purified lymphocytes, monocytes, monocyte-derived DC, 100 μg/ml PTG, 24 h) is “confined to monocytes”.
